Entries after “also recorded” stand apart in the source; their conditions may differ.
Tests used:
[1] = tested on: CRF1+ neurons in the central nucleus of the amygdala (CeA); experiment: Electrophysiology, mIPSCs of CRF1+ neurons in CeA slices; design: species or system mouse
[2] = tested on: VTA dopamine neurons, NMDAR EPSCs; experiment: Electrophysiology, NMDAR EPSCs of VTA dopamine neurons in slices; design: species or system mouse; conditions: CRF 1 μM, VTA-DA neurons, male and female mice

CC[C@H](C)[C@H](NC(=O)[C@@H](NC(=O)[C@H](CCC(=O)O)NC(=O)[C@H](CCSC)NC(=O)[C@H](CC(C)C)NC(=O)[C@H](CCCCN)NC(=O)[C@H](CCCNC(=N)N)NC(=O)[C@H](CC(N)=O)NC(=O)[C@H](CO)NC(=O)[C@H](Cc1c[nH]cn1)NC(=O)[C@H](C)NC(=O)[C@H](CCC(N)=O)NC(=O)[C@H](CCC(N)=O)NC(=O)[C@H](C)NC(=O)[C@H](CC(C)C)NC(=O)[C@H](CCC(N)=O)NC(=O)[C@H](CCC(=O)O)NC(=O)[C@H](C)NC(=O)[C@H](CCCNC(=N)N)NC(=O)[C@H](C)NC(=O)[C@H](CCSC)NC(=O)[C@H](CCC(=O)O)NC(=O)[C@H](CC(C)C)NC(=O)[C@@H](NC(=O)[C@H](CCC(=O)O)NC(=O)[C@H](CCCNC(=N)N)NC(=O)[C@H](CC(C)C)NC(=O)[C@H](CC(C)C)NC(=O)[C@H](Cc1c[nH]cn1)NC(=O)[C@H](Cc1ccccc1)NC(=O)[C@@H](NC(=O)[C@H](CC(C)C)NC(=O)[C@H](CC(=O)O)NC(=O)[C@H](CC(C)C)NC(=O)[C@H](CO)NC(=O)[C@@H](NC(=O)[C@@H]1CCCN1C(=O)[C@@H]1CCCN1C(=O)[C@H](CCC(=O)O)NC(=O)[C@H](CCC(=O)O)NC(=O)[C@@H](N)CO)[C@@H](C)CC)[C@@H](C)O)C(C)C)[C@@H](C)CC)C(N)=O [CRF, corticotropin releasing factor]
Change in mIPSC properties by CRF after pre-treatment [1]: did not induce changes; also recorded: do not produce significant changes
Effect of CRF on NMDA receptor EPSCs [2]: potentiated

Reference: article PMC9762412 (SLAS discovery : advancing life sciences R & D, 2022)
